Laboratory results as given in PMC7679387, “VZHE-039, a novel antisickling agent that prevents erythrocyte sickling under both hypoxic and anoxic conditions” (Scientific Reports, 2020).

Legend:
[1] = target: T1, HbA (Homo sapiens, UniProt P69905); assay: In vitro time-dependent Hb oxygen equilibrium study using normal whole blood (tonometry); type: cell-based; settings: 2 mM, Hct 30%, 37 °C, 1-24 h
T1 construct: fresh normal adult whole blood (Hct of 30%); from tissue; host or cells: normal adult whole blood (red blood cells)
Description: The antisickling activity of aromatic aldehydes is dependent on Schiff-base interaction between the aldehyde moiety and the Hb αVal1 amines (Schiff-base adduct) and the increase in the protein affinity for oxygen[30]–[40]. […] To overcome this pharmacologic limitation, Tucaresol and Voxelotor, two potent antisickling agents utilized a ortho-hydroxyl moiety (relative to the aldehyde group) on the benzaldehyde ring to form intramolecular hydrogen-bond interaction with the aldehyde group to form hemiacetal-like moiety, which led to significant reduction in oxidative metabolism of the aldehyde[28],[50]. […] VZHE-039, however, incorporates this ortho-hydroxyl moiety on the benzene ring, which is expected to increase its oxidative metabolic stability. This was tested by incubating 2 mM of VZHE-039 (with vanillin and TD-7 as controls) with fresh normal adult whole blood (Hct of 30%) at 37 °C as a surrogate measure of oxidative metabolism. At defined time points (1, 4, 8, 12 and 24 h), aliquot samples were drawn, and subsequently analyzed for their P50-shifts relative to the initial P50 value, using three-point tonometry. In parallel, an untreated control sample was also assessed to control for any time-dependent, but drug-independent changes in P50 values. […] These findings confirm the importance of the ortho-hydroxyl group in aromatic aldehydes in preventing or reducing enzymatic metabolism of aldehyde in RBCs.
Normal whole blood samples (hematocrit 30%) in the absence (control) or presence of 2 mM concentration VZHE-039 (solubilized in DMSO) were incubated at 37 °C for 24 h with shaking (at 140 rpm). At 1, 4, 8, 12 and 24 h time intervals, aliquots of this mixture were removed and then subjected to OEC analysis using tonometry as previously described. Vanillin and TD-7 were used as positive controls, while DMSO was tested as negative control. Briefly, the compound-treated blood samples were incubated in IL 237 tonometers (Instrumentation Laboratories, Inc. Lexington, MA) for approximately 10 min at 37 °C, and allowed to equilibrate at oxygen tensions 6, 20, and 40 mmHg. The samples were then aspirated into an ABL 700 Automated Blood Gas Analyzer (Radiometer) to determine the pH, partial pressure of CO2 (pCO2), partial pressure of oxygen (pO2), and Hb oxygen saturation values (SO2). The measured values of pO2 (mmHg) and SO2 at each pO2 value were then subjected to a non-linear regression analysis using the program Scientist (Micromath, Salt Lake City, UT) to estimate P50 as previously reported.

[2] = tested on: Caco-2 cell monolayers; assay: Caco-2 bi-directional permeability; type: in vitro ADME, human; settings: Caco-2 monolayers
Protocol: (§1) Toxicity concerns remain an important issue in the use of aromatic aldehydes in treating a chronic disease, such as SCD, especially as it involves modification of a large amount of in vivo present Hb. […] We evaluated key metrics such as in vitro RBC partitioning and ADME/safety profiles, in order to glean important safety insights. […] We also assessed VZHE-039 at 10 μM for its bi-directional cell permeability using Caco-2 cell monolayers[53],[54].
(§2) Human epithelial colorectal adenocarcinoma (Caco-2) cells (HTB-37) were cultured in T75 flasks using complete Dulbecco’s Modified Eagles Medium (DMEM) containing 10% fetal bovine serum (FBS), 1% glutamine, 1% penicillin and 1% streptomycin, at 37 °C in a 5% CO2 atmosphere. Cells were passaged at 80–90% confluency using 0.05% trypsin–EDTA and the medium was changed every other day. Following this, the cells were trypsinized, suspended in medium and applied to a Millipore 96-well plate where they were cultured as monolayers at a density of 25,000 cells/well. The cells were incubated in a 37 °C/5% CO2 incubator to allow cell attachment and proliferation. Media was changed every 2–3 days for 21 days when cells reached 100% confluency. For Apical → Basolateral (A → B) permeability, 10 μM VZHE-039 was added to the apical (A) side and the amount of permeation determined on the basolateral (B) side; for Basolateral → Apical (B → A) permeability, 10 μM VZHE-039 was added to the B-side and the amount of permeation was determined on the A side. The A-side buffer contained 100 μM lucifer yellow dye, in Transport Buffer (1.98 g/L glucose in 10 mM HEPES, 1 × Hank’s Balanced Salt Solution) pH 7.4, and the B-side buffer used was the Transport Buffer at pH 7.4. Caco-2 cells were incubated with 10 μM VZHE0-39 in these buffers for 2 h. Ranitidine (low permeability), Warfarin (high permeability) and Talinolol (P-gp efflux control) were used as controls. […] Following centrifugation, the supernatant for donor and receiver side samples was analyzed by LC–MS/MS to determine peak area ratios.
(§3) The efflux ratio (Re) was calculated as: Re=PappB→A/PappA→B

[3] = Caco-2 bi-directional permeability; type: in vitro ADME, human; settings: human, Caco-2, pH 7.4; read-out: Efflux ratio (Re)
Protocol: as §1, §2, §3

[4] = target: T2, CYP3A4 (Homo sapiens, UniProt P08684); assay: In vitro CYP inhibition, pooled human liver microsomes; type: in vitro ADME
T2 construct: 0.2–0.5 mg/mL pooled human liver microsomes; from tissue; host or cells: pooled human liver microsomes
Protocol: Next, we tested VZHE-039 at concentrations of 0.1 to 100 µM, considered to be biologically relevant unbound plasma concentrations, for possible CYP inhibition using pooled human liver microsomes and isozyme-specific probe substrates (CYP1A2, CYP2C8, CYP2C9, CYP2C19, CYP2D6, CYP3A4, CYP2B6)[55].
VZHE-039 was studied for its inhibitory potential of seven major drug metabolizing human cytochrome P450 (CYP) enzymes (CYP1A2, CYP2C8, CYP2C9, CYP2C19, CYP2D6, CYP3A4, CYP2B6) using pooled human liver microsomes as published previously[26],[55]. The probe substrates include tacrine (CYP1A2), amodiaquine (CYP2C8), tolbutamide (CYP2C9), mephenytoin (CYP2C19), dextromethorphan (CYP2D6), midazolam (CYP3A4), testosterone (CYP3A4), and bupropion (CYP2B6). […] Assay conditions were optimized for each human cytochrome P450 substrate. The optimized reaction mixtures (200 μL) contained a final concentration of 0.2–0.5 mg/mL pooled human liver microsomes, 2 mM NADPH in 100 mM potassium phosphate, pH 7.4 buffer with 5 mM MgCl2, and VZHE-039 concentration of 0.1 to 100 µM. The assays were performed in duplicate in 96-well plates at 37 °C for 10–60 min. The reaction was terminated with addition of methanol, followed by incubation at 4 °C for 10 min and centrifuged at 4 °C for 10 min. Effect of VZHE-039 on formation of the respective probe substrate metabolites (velnacrine, N‐desethylamodiaquine, 4-hydroxytolbutamide, 4′-hydroxymephenytoin, dextrophan, 1′-hydroxymidazolam, and 6β-hydroxtestosterone and hydroxybupropion) were determined using LC–MS/MS.

T2 sequence (P08684 whole entry): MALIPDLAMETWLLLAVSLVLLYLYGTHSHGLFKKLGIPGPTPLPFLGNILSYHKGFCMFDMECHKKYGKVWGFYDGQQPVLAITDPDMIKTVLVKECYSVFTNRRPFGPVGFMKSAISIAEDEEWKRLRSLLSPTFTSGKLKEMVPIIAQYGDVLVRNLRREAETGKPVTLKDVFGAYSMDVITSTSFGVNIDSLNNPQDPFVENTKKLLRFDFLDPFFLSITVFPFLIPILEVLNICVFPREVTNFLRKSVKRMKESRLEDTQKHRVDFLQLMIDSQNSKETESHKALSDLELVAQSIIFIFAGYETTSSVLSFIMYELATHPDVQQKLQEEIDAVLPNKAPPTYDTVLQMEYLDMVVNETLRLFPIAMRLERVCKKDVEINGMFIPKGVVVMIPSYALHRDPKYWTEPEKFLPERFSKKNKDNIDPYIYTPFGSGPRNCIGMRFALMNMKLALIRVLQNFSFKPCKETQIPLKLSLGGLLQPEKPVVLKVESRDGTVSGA
T1 sequence (P69905 2-142 limits assumed): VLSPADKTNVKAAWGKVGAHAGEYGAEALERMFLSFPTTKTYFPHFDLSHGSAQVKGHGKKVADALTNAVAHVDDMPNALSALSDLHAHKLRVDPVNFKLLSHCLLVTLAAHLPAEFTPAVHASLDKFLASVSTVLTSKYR
T1 sequence (P68871 2-147 partner limits assumed): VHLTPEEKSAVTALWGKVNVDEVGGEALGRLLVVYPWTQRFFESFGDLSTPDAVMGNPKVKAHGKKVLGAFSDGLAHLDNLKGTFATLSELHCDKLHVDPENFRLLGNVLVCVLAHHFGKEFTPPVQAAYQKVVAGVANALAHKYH

Permeability (in words) ([2]; 10 μM): high in vitro GI permeability
efflux ratio at 2 h, 10 µM [3]: 0.85
IC50 ([4]; substrate Midazolam): > 100 µM
IC50 ([4]; substrate Testosterone): 95 µM
SMILES: O=Cc1c(O)cccc1OCc1cccc(CO)n1 [VZHE-039, 2-((6-(Hydroxymethyl)pyridin-2-yl)methoxy)-6-hydroxybenzaldehyde]
Time course of P50-shift (in words) [1]: sustained P50-shift throughout the entire 24-h experimental period
Efflux transporter (P-gp) substrate (in words) [2]: not an efflux transporter (P-gp) substrate
